Measurements reported in US20150352075A1, “Treatment of Alzheimer's and Cognitive Impairment With Andrographolides” (INNOBIOSCIENCE, LLC, priority 2013, published 2015).
Like-named read-outs stand apart in the source and are kept apart here.

Tests used:
[1] = test system: Wnt target genes in cultured hippocampal neurons; experiment: PCR array of Wnt target genes in hippocampal neurons; type: cell-based, rat
Procedure: Primary culture of rat hippocampal neurons. […] PCR-ARRAY. RNA from hippocampal neurons was extracted using Trizol. Quantification and purity of RNA preparations were checked by absorbance using Nanodrop ND-2000. Only preparations with a 260/280 nm ratio ≧1.8, a 260/230 nm ratio ≧1.7 and no sign of RNA degradations, verified by agarose gel electrophoresis with Gel Red™ were used. Genomic DNA was degraded. Using RT2First-Strand cDNA Synthesis kit (SuperArray), 1 ng total RNA was reverse transcribed and then real-time PCR was performed by adding cDNA directly to PCR Master Mix, containing SYBR Green and ROX. The mixtures were then aliquoted into a 96-well PCR array plates, which profiles the expression of 84 Wnt target genes from rat. The PCR was run on ABI StepOnePlus, with 1 cycle of 10 min at 95° C. followed by 40 cycles of 15s at 95° C. and 1 min at 60° C. […] Treatment of neuronal cultures. Primary hippocampal cultures of neurons 14 DIV were washed twice in neurobasal medium and maintained for 1 hour. Next ANDRO (10 μM) and 6-BIO (10 μM) were added to different time periods.

[2] = test system: APPswe/PS-1 double transgenic mice; experiment: LTP by TBS in hippocampal CA1 slices from treated transgenic mice; type: in vivo; conditions: slices from both sets (7- and 12-month-old) of treated APPswe/PS-1 mice
[3] = target: T1, Immunoprecipitated GSK-3β from hippocampus of wild-type mice (Mus musculus, UniProt Q9WV60); experiment: Luminometric GSK-3β activity assay; type: biochemical
T1 construct: the hippocampus of two month-old wild-type mice were lysed in immunoprecipitation buffer; from tissue; host or cells: hippocampus of two-month-old wild-type mice (immunoprecipitated with anti-GSK-3β antibody, Santa Cruz)
T1 sequence (Q9WV60 whole entry): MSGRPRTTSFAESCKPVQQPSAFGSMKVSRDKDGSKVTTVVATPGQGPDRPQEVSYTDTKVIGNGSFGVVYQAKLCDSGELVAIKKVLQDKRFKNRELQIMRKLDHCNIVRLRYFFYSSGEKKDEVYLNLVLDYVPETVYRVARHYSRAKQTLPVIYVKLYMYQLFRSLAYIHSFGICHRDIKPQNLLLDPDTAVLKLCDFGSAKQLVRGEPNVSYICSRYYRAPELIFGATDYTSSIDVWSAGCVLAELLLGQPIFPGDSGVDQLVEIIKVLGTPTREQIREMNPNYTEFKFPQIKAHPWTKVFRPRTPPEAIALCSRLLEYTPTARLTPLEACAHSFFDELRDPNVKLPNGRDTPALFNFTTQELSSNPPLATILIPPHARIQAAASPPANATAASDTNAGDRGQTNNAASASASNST
Procedure: The immunoprecipitation was performed as previously described (Garrido et al, 2002). Briefly, the hippocampus of two month-old wild-type mice were lysed in immunoprecipitation buffer (25 mM HEPES pH 7.4, 125 mMNaCl, 25 mMNaF, 1 mM EDTA, 1 mM EGTA, 1% NP-40) including phosphatase inhibitors (1 mM NaVO3 and 200 nM okadaic acid) and the protease inhibitor cocktail described above. 200 μg of total proteins from lysate were precleared by using protein G-Sepharose beads (Santa Cruz Biotechnology) for 1 h at 4° C. and then were incubated with anti-GSK-3β antibody (Santa Cruz Biotechnology) and new protein G beads for 4 h at 4° C. The immunocomplexes were finally pelleted and washed three times with cold immunoprecipitation buffer.
IC50 of ANDRO was determined by a luminometric GSK-3β activity assay. […] Briefly, ANDRO was tested at different concentrations and diluted in kinase buffer containing final concentrations of: 40 mM Tris pH 7.5; 20 mM MgCl2; 0.1 mg/ml BSA. […] The enzymatic reaction was stopped after 10 min of incubation to room temperature by adding 50 μl Kinase Glo (Promega, Madison, USA). The luminometric signal was allowed to stabilize for 10 min and the measured with a Luminometer TURNER DESIGNS model TD-2020.

[4] = test system: APPswe/PS-1 double transgenic mice; experiment: Memory flexibility test (modified Morris Water Maze); type: in vivo; conditions: 7-month-old APPswe/PS-1 mice, 2.0 mg/kg IP three times per week, four weeks, vs Tg control
HEK293T cells = experiment: TOPflash/FOPflash luciferase reporter assay; type: cell-based
Procedure: 150,000 HEK293T cells were seeded in triplicate per condition and kept for 24 hours at 37° C. with 5% CO2. The cultures were transfected with TOPflash or FOPflash (400 ng), which are firefly-luciferase reporter DNA constructs (Milipore), using LipofectAMINE 2000 (Invitrogen). To control for transfection pRL-TK (10 ng) was included in all transfections. […] Values were normalized by the renilla value from the same well. To statistically compare treatments ANOVA was used.

[5] = test system: CA3-CA1 connections in hippocampal slices; experiment: Electrophysiology (fEPSP, PPF, LTP, LTD) in Wt hippocampal slices; type: cell-based, mice
Procedure: Slices were transferred to an experimental chamber (2 ml), superfused (3 ml/min, at 20-22° C.) with gassed ACSF and visualized by trans-illumination with a binocular microscope (MSZ-10, Nikon, Melville, N.Y.). […] The stimulation was in the Stratum Radiatum within 100-200 μm from the recording site. The paired pulse facilitation index was calculated by ((R2−R1)/R1), where R1 and R2 were the peak amplitudes of the first and second fEPSP respectively. To generate LTP we used Theta Burst Stimulation (TBS) consisting of 5 trains of stimulus with an inter-train interval of 20 s. Each train consisted of 10 bursts at 5 Hz and each burst having 4 pulses at 100 Hz. To generate LTD we used Low Frequency Stimulation (LFS) consisting in 900 paired pulses at 1 Hz. Recordings were filtered at 2.0-3.0 kHz, sampled at 4.0 kHz using an A/D converter, and stored with pClamp 10 (Molecular Devices). Evoked postsynaptic responses were analyzed off-line, using an analysis software (pClampfit, Molecular Devices), which allowed visual detection of events, computing only those events that exceeded and arbitrary threshold.

In the case of C=C1CC[C@@H]2C(C)(CO)C(O)CC[C@@]2(C)C1C/C=C1/C(=O)OCC1O (stereo in doubt) [ANDRO, 3-(2-(Decahydro-6-hydroxy-5-(hydroxymethyl)-5,8a-dimethyl-2-methylenenaphthyl)ethylidene)dihydro-4-hydroxyfuran-2(3H)-one], the Cdh-1 gene expression [1] is reported as “differential expression induced by ANDRO”, the “number of Wnt target genes specifically modulated” value ([1]; 9 h, of the 86 genes analyzed) is reported as 3 genes and the “number of modulated Wnt target genes shared by both treatments” value ([1]; 9 h, of the 86 genes analyzed) is reported as 4. The Ets2 gene expression ([1]; after Bonferroni correction) was “down-regulation of Ets2 gene”, the “LTP induction in CA3-CA1 transmission” value [2] was “have the property to induce a LTP that is maintained for 1 h” and the IC50 ([3]; 25 μM pGS-2 peptide substrate, 10 μM ATP, preincubation 10 min, read-out: inhibition constant (IC50) of GSK-3β activity) was 5.58 µM. For the same compound, the “GSK-3β inhibition in the presence of DTT” value ([3]; 0.5 mM DTT) was “neither prevents the inhibition generated by ANDRO”, the IC50 ([3]; different concentrations of ATP, read-out: IC50 using different concentrations of ATP) was ~5.58 µM and the “IC50 at increased substrate concentration” value ([3]; different concentrations of the substrate) was “increase in the IC50 of ANDRO”. The “number of trial to criterion of learning” value [4] was “reduction in the number of trial to criterion of learning”, the FOPflash reporter activity (HEK293T cells; 10 μM, 24 h) was “not in the FOPflash” and the TOPflash reporter activity (HEK293T cells; 10 μM, 24 h) was “significant increase in the TOPflash”. For the same compound, the “increase of luciferase reporter over control” value (HEK293T cells; HEK293T, TOPflash) was 4 fold, the “fEPSP amplitude (basal synaptic transmission)” value ([5]; ANDRO (5 μM), slices exposed for 30 min) was “increased the fEPSP amplitude” and the “paired pulse facilitation (PPF) ratio” value ([5]; Wt hippocampal slices) was “does not increase PPF ratio”. The “LTP induction or maintenance” value ([5]; Wt hippocampal slices, TBS, in the presence of ANDRO) was “do not observed alteration in the LTP induction or maintenance” and the “induction of LTD” value ([5]; hippocampal slices, LFS) was “the LTD was inhibited”.
